Measured values: PubChem BioAssay AID1919016 (Molecular Pharmacology Branch, DTP, NCI, 2023)
Values joined by “and” are separate entries in the source; they are usually repeats but may differ in a detail not shown here. Equal values may be shown once. Each block holds one compound with its values, some of them ahead of it.

System: NCI-H196 complex spheroid growth, percent test/control
Assay: Anticancer human tumor NCI-H196 cell line growth inhibition [AhR];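 also: seven days of drug exposure starting three days after plating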;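 as to viability, T/C: 100% = DMSO vehicle control wells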
Settings: for viability, T/C: stronger effect = lower value
Method in brief: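 Agents were dosed in half-log steps down from roughly clinical Cmax, or from 10 microM where Cmax was unknown, alone and with AhR antagonists. Read-out: percent test/control growth of tumor spheroids containing HUVEC and MSC stromal cells.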

[1] = curve of first compound, second compound 0.1 µM
[2] = curve of first compound, second compound 0.316 µM
[3] = curve of first compound, second compound 1 µM
[4] = curve of first compound, second compound 3.16 µM
[5] = curve of first compound, second compound 10 µM
[6] = second compound 0.1 µM, first compound 0.0316 µM
[7] = second compound 0.1 µM, first compound 0.1 µM
[8] = second compound 0.1 µM, first compound 0.316 µM
[9] = second compound 0.1 µM, first compound 1 µM
[10] = second compound 0.1 µM, first compound 3.16 µM
[11] = second compound 0.1 µM, first compound 10 µM
[12] = second compound 0.316 µM, first compound 0.0316 µM
[13] = second compound 0.316 µM, first compound 0.1 µM
[14] = second compound 0.316 µM, first compound 0.316 µM
[15] = second compound 0.316 µM, first compound 1 µM
[16] = second compound 0.316 µM, first compound 3.16 µM
[17] = second compound 0.316 µM, first compound 10 µM
[18] = second compound 1 µM, first compound 0.0316 µM
[19] = second compound 1 µM, first compound 0.1 µM
[20] = second compound 1 µM, first compound 0.316 µM
[21] = second compound 1 µM, first compound 1 µM
[22] = second compound 1 µM, first compound 3.16 µM
[23] = second compound 1 µM, first compound 10 µM
[24] = second compound 3.16 µM, first compound 0.0316 µM
[25] = second compound 3.16 µM, first compound 0.1 µM
[26] = second compound 3.16 µM, first compound 0.316 µM
[27] = second compound 3.16 µM, first compound 1 µM
[28] = second compound 3.16 µM, first compound 3.16 µM
[29] = second compound 3.16 µM, first compound 10 µM
[30] = second compound 10 µM, first compound 0.0316 µM
[31] = second compound 10 µM, first compound 0.1 µM
[32] = second compound 10 µM, first compound 0.316 µM
[33] = second compound 10 µM, first compound 1 µM
[34] = second compound 10 µM, first compound 3.16 µM
[35] = second compound 10 µM, first compound 10 µM
[36] = second compound 0.1 µM, first compound 0.000949 µM
[37] = second compound 0.1 µM, first compound 0.003 µM
[38] = second compound 0.1 µM, first compound 0.00949 µM
[39] = second compound 0.1 µM, first compound 0.03 µM
[40] = second compound 0.1 µM, first compound 0.0949 µM
[41] = second compound 0.1 µM, first compound 0.3 µM
[42] = second compound 0.316 µM, first compound 0.000949 µM
[43] = second compound 0.316 µM, first compound 0.003 µM
[44] = second compound 0.316 µM, first compound 0.00949 µM
[45] = second compound 0.316 µM, first compound 0.03 µM
[46] = second compound 0.316 µM, first compound 0.0949 µM
[47] = second compound 0.316 µM, first compound 0.3 µM
[48] = second compound 1 µM, first compound 0.000949 µM
[49] = second compound 1 µM, first compound 0.003 µM
[50] = second compound 1 µM, first compound 0.00949 µM
[51] = second compound 1 µM, first compound 0.03 µM
[52] = second compound 1 µM, first compound 0.0949 µM
[53] = second compound 1 µM, first compound 0.3 µM
[54] = second compound 3.16 µM, first compound 0.000949 µM
[55] = second compound 3.16 µM, first compound 0.003 µM
[56] = second compound 3.16 µM, first compound 0.00949 µM
[57] = second compound 3.16 µM, first compound 0.03 µM
[58] = second compound 3.16 µM, first compound 0.0949 µM
[59] = second compound 3.16 µM, first compound 0.3 µM
[60] = second compound 10 µM, first compound 0.000949 µM
[61] = second compound 10 µM, first compound 0.003 µM
[62] = second compound 10 µM, first compound 0.00949 µM
[63] = second compound 10 µM, first compound 0.03 µM
[64] = second compound 10 µM, first compound 0.0949 µM
[65] = second compound 10 µM, first compound 0.3 µM

IC50 (curve of compound): > 3000 nM
Structure (SMILES): CCN(c1cc(-c2ccc(CN3CCOCC3)cc2)cc(C(=O)NCc2c(C)cc(C)[nH]c2=O)c1C)C1CCOCC1
viability, T/C (compound 0.00949 µM): 98.5% and 117% and 104% | viability, T/C (compound 0.03 µM): 103% and 99.6% and 104% | viability, T/C (compound 0.0949 µM): 92.1% and 98.2% and 99.4% | viability, T/C (compound 0.3 µM): 111% and 101% and 107% | viability, T/C (compound 0.949 µM): 110% (2×) and 106% | viability, T/C (compound 3 µM): 104% and 94.1% and 107%

IC50 (curve of compound): > 300 nM
Structure (SMILES): CCc1c2c(nc3ccc(O)cc13)-c1cc3c(c(=O)n1C2)COC(=O)[C@]3(O)CC
viability, T/C (compound 0.000949 µM): 89.6% and 96.8% and 99.8% | viability, T/C (compound 0.003 µM): 98.3% (2×) and 108% | viability, T/C (compound 0.00949 µM): 96.8% and 95.2% and 99.4% | viability, T/C (compound 0.03 µM): 96.7% and 109% (2×) | viability, T/C (compound 0.0949 µM): 90.5% and 101% and 110% | viability, T/C (compound 0.3 µM): 96.5% and 83.3% and 95.6%

IC50 [1]: > 10000 nM | IC50 [2]: > 10000 nM | IC50 [3]: > 10000 nM | IC50 [4]: > 10000 nM | IC50 [5]: > 10000 nM
Structure (SMILES): COc1ccc([C@@H](O)c2cc(-c3ncnc4cc(N5CCOCC5)ccc34)c(F)cc2Cl)nn1 + CC(CO)NC(=O)c1cc(-c2ccc(Cl)cc2)nn(-c2cnn(C)c2)c1=O
viability, T/C [6]: 102% | viability, T/C [7]: 91.2% | viability, T/C [8]: 94.5% | viability, T/C [9]: 80.3% | viability, T/C [10]: 75.6% | viability, T/C [11]: 82.4% | viability, T/C [12]: 109% | viability, T/C [13]: 100% | viability, T/C [14]: 94.9% | viability, T/C [15]: 83.3% | viability, T/C [16]: 80.2% | viability, T/C [17]: 75.8% | viability, T/C [18]: 107% | viability, T/C [19]: 106% | viability, T/C [20]: 102% | viability, T/C [21]: 89.3% | viability, T/C [22]: 77% | viability, T/C [23]: 72.8% | viability, T/C [24]: 108% | viability, T/C [25]: 113% | viability, T/C [26]: 114% | viability, T/C [27]: 96.1% | viability, T/C [28]: 84.1% | viability, T/C [29]: 78.7% | viability, T/C [30]: 115% | viability, T/C [31]: 104% | viability, T/C [32]: 95.4% | viability, T/C [33]: 84.5% | viability, T/C [34]: 75.8% | viability, T/C [35]: 72.3%

IC50 [1]: > 300 nM | IC50 [2]: > 300 nM | IC50 [3]: > 300 nM | IC50 [4]: > 300 nM | IC50 [5]: > 300 nM
Structure (SMILES): Nc1ncn(C2CC(O)C(CO)S2)c(=O)n1 (stereo not drawn) + Cc1cncc(-c2nc(NCCc3c[nH]c4ccccc34)c3ncn(C(C)C)c3n2)c1
viability, T/C [36]: 109% | viability, T/C [37]: 112% | viability, T/C [38]: 109% | viability, T/C [39]: 111% | viability, T/C [40]: 118% | viability, T/C [41]: 116% | viability, T/C [42]: 101% | viability, T/C [43]: 110% | viability, T/C [44]: 113% | viability, T/C [45]: 112% | viability, T/C [46]: 115% | viability, T/C [47]: 111% | viability, T/C [48]: 107% | viability, T/C [49]: 110% | viability, T/C [50]: 108% | viability, T/C [51]: 116% | viability, T/C [52]: 121% | viability, T/C [53]: 123% | viability, T/C [54]: 118% | viability, T/C [55]: 125% | viability, T/C [56]: 115% | viability, T/C [57]: 114% | viability, T/C [58]: 116% | viability, T/C [59]: 117% | viability, T/C [60]: 92.3% | viability, T/C [61]: 92.9% | viability, T/C [62]: 101% | viability, T/C [63]: 101% | viability, T/C [64]: 93.8% | viability, T/C [65]: 106%

IC50 [1]: > 300 nM | IC50 [2]: > 300 nM | IC50 [3]: > 300 nM | IC50 [4]: > 300 nM | IC50 [5]: 104 nM
Structure (SMILES): CCc1c2c(nc3ccc(O)cc13)-c1cc3c(c(=O)n1C2)COC(=O)[C@]3(O)CC + Cc1cncc(-c2nc(NCCc3c[nH]c4ccccc34)c3ncn(C(C)C)c3n2)c1
viability, T/C [36]: 99.9% | viability, T/C [37]: 102% | viability, T/C [38]: 104% | viability, T/C [39]: 102% | viability, T/C [40]: 87.6% | viability, T/C [41]: 78.5% | viability, T/C [42]: 91.3% | viability, T/C [43]: 91.9% | viability, T/C [44]: 96% | viability, T/C [45]: 100% | viability, T/C [46]: 77.2% | viability, T/C [47]: 74.2% | viability, T/C [48]: 99.3% | viability, T/C [49]: 109% | viability, T/C [50]: 116% | viability, T/C [51]: 102% | viability, T/C [52]: 96.9% | viability, T/C [53]: 57.8% | viability, T/C [54]: 96.9% | viability, T/C [55]: 102% | viability, T/C [56]: 92.4% | viability, T/C [57]: 85.6% | viability, T/C [58]: 86.7% | viability, T/C [59]: 52.5% | viability, T/C [60]: 82.9% | viability, T/C [61]: 88.5% | viability, T/C [62]: 90% | viability, T/C [63]: 65.5% | viability, T/C [64]: 54.6% | viability, T/C [65]: 30.5%

IC50 (curve of compound): > 100 nM
Structure (SMILES): CC[C@@]1(O)C(=O)OCc2c1cc1n(c2=O)Cc2cc3c(CN(C)C)c(O)ccc3nc2-1
viability, T/C (compound 0.000316 µM): 105% and 99.9% and 103% | viability, T/C (compound 0.001 µM): 110% and 104% and 107% | viability, T/C (compound 0.00316 µM): 89.1% and 98% and 101% | viability, T/C (compound 0.01 µM): 101% and 94% and 103% | viability, T/C (compound 0.0316 µM): 116% and 105% and 106% | viability, T/C (compound 0.1 µM): 108% and 101% and 104%

IC50 (curve of compound): > 10000 nM
Structure (SMILES): COc1ccc([C@@H](O)c2cc(-c3ncnc4cc(N5CCOCC5)ccc34)c(F)cc2Cl)nn1
viability, T/C (compound 0.0316 µM): 100% and 96% and 105% | viability, T/C (compound 0.1 µM): 97.1% and 92.7% and 93.5% | viability, T/C (compound 0.316 µM): 97% and 91.1% and 94.3% | viability, T/C (compound 1 µM): 89.2% and 84.2% and 89.9% | viability, T/C (compound 3.16 µM): 85.3% and 81.3% and 89.7% | viability, T/C (compound 10 µM): 77.3% and 69% and 71.9%

IC50 [1]: > 10000 nM | IC50 [2]: > 10000 nM | IC50 [3]: > 10000 nM | IC50 [4]: > 10000 nM | IC50 [5]: > 10000 nM
Structure (SMILES): COc1cc(Nc2ncc3c(n2)-c2ccc(Cl)cc2C(c2c(F)cccc2OC)=NC3)ccc1C(=O)O + CC(CO)NC(=O)c1cc(-c2ccc(Cl)cc2)nn(-c2cnn(C)c2)c1=O
viability, T/C [6]: 91.5% | viability, T/C [7]: 107% | viability, T/C [8]: 116% | viability, T/C [9]: 112% | viability, T/C [10]: 111% | viability, T/C [11]: 138% | viability, T/C [12]: 103% | viability, T/C [13]: 106% | viability, T/C [14]: 119% | viability, T/C [15]: 113% | viability, T/C [16]: 127% | viability, T/C [17]: 116% | viability, T/C [18]: 101% | viability, T/C [19]: 98.9% | viability, T/C [20]: 112% | viability, T/C [21]: 111% | viability, T/C [22]: 136% | viability, T/C [23]: 134% | viability, T/C [24]: 107% | viability, T/C [25]: 108% | viability, T/C [26]: 121% | viability, T/C [27]: 115% | viability, T/C [28]: 130% | viability, T/C [29]: 132% | viability, T/C [30]: 107% | viability, T/C [31]: 109% | viability, T/C [32]: 126% | viability, T/C [33]: 122% | viability, T/C [34]: 127% | viability, T/C [35]: 131%
